Data from PubChem BioAssay AID504778 (National Center for Advancing Translational Sciences (NCATS), 2011).

Tested on: Caco-2 monolayer, B->A permeability, LC-MS/MS
Experiment: Enhancers of SMN2 Splice Variant Expression: Caco-2 Permeability Profiling
Settings: stronger effect = higher value
From the text: Spinal muscular atrophy (SMA) is caused by insufficient levels of the survival motor neuron protein SMN. The SMN locus on chromosome 5q13 contains two inverted copies of SMN called SMN1 and SMN2 which are 99% identical at the amino acid level. SMN1 is a fully functional protein and SMN2 skips exon 7 90% of the time. Skipping of exon 7 produces non-functional protein product. 10% of the SMN2 protein includes exon 7 and is fully functional. In the SMA disease state, mutations in the SMN1 locus are the cause of the disease state. Because only 10% of SMN2 is of the fully functional form, it is not sufficient to overcome the deficiency produced by the loss of the SMN1 product. A therapy that either increase the amount of SMN2 product made or to increase the inclusion of exon 7 has been proposed for the treatment of SMA. After screening and medicinal chemistry efforts a probe was identified and is further characterized in this in vitro ADME assay. This Caco-2 permeability assay predicts the in vivo absorption of the lead across the intestinal lining by using a Caco-2 cell line and measuring the lead's rate of transport […]. […] NIH Chemical Genomics Center [NCGC] NIH Molecular Libraries Probe Production centers Network [MLPCN] […]
1. […] The T0, LY and T90, LY plates are read by FlexStation 3 at excitation of 485 nm and emission of 535 nm to determine LY permeability. […]

- Papp B->A: 12 10^-6 cm/s
SMILES: O=C(O)C1CCN(c2nc(-c3ccc(Br)cc3)cs2)CC1
